These are literature values, as cited in patent US20030199483A1, “Aldosterone receptor antagonist and alpha-adrenergic modulating agent combination therapy for prevention or treatment of pathogenic conditions” (priority 2002, published 2003).

The data set concerns myocardial fibrosis in animal models.

Turning to `CC(=O)S[C@@H]1CC2=CC(=O)CC[C@]2(C)[C@H]2CC[C@@]3(C)[C@@H](CC[C@@]34CCC(=O)O4)[C@H]12` [spironolactone, 17-hydroxy-7α-mercapto-3-oxo-17α-pregn-4-ene-21-carboxylic acid γ-lactone acetate], for the setting “D. Klug et al 1993”, the myocardial fibrosis result is recorded as “prevents myocardial fibrosis”. The fibrosis result (irrespective of the development of left ventricular hypertrophy and the presence of hypertension, C. G. Brilla et al 1993) was “prevent fibrosis”.
